The CheMixHub ionic liquid set
± gives the uncertainty stated by the source.

Assay: xn = mol fraction of the nth substance listed

CCCC[n+]1ccn(C)c1.[Cl-] + O + CCCCCCCCCCCCCCCC[N+](C)(C)C.[Br-]
electrical conductivity [S/m], 100 kPa
Settings	298 K	303 K	308 K	313 K	318 K
x1 = 0.0001802, x3 = 8.8e-07	0.095 ± 0.06	0.094 ± 0.06	0.096 ± 0.06	0.101 ± 0.06	0.101 ± 0.06
x1 = 0.0001802, x3 = 1.79e-06	0.096 ± 0.06	0.095 ± 0.06	0.097 ± 0.06	0.101 ± 0.06	0.101 ± 0.06
x1 = 0.0001802, x3 = 2.67e-06	0.097 ± 0.06	0.095 ± 0.06	0.097 ± 0.06	0.102 ± 0.06	0.102 ± 0.06
x1 = 0.0001802, x3 = 3.56e-06	0.097 ± 0.06	0.096 ± 0.06	0.098 ± 0.06	0.102 ± 0.06	0.102 ± 0.06
x1 = 0.0001802, x3 = 4.42e-06	0.098 ± 0.06	0.096 ± 0.06	0.098 ± 0.06	0.103 ± 0.06	0.102 ± 0.06
x1 = 0.0001802, x3 = 5.31e-06	0.098 ± 0.06	0.096 ± 0.06	0.098 ± 0.06	0.103 ± 0.06	0.103 ± 0.06
x1 = 0.0001802, x3 = 6.17e-06	0.098 ± 0.06	0.097 ± 0.06	0.099 ± 0.06	0.104 ± 0.06	0.103 ± 0.06
x1 = 0.0001802, x3 = 7.02e-06	0.098 ± 0.06	0.097 ± 0.06	0.099 ± 0.06	0.104 ± 0.06	0.103 ± 0.06
x1 = 0.0001802, x3 = 7.87e-06	0.098 ± 0.06	0.097 ± 0.06	0.099 ± 0.06	0.104 ± 0.06	0.103 ± 0.06
x1 = 0.0001802, x3 = 8.72e-06	0.098 ± 0.06	0.097 ± 0.06	0.1 ± 0.06	0.104 ± 0.06	0.104 ± 0.06
x1 = 0.0001802, x3 = 9.57e-06	0.099 ± 0.06	–	–	–	–
x1 = 0.0001802, x3 = 1.04e-05	0.099 ± 0.06	0.098 ± 0.06	0.1 ± 0.06	0.105 ± 0.06	0.104 ± 0.06
x1 = 0.0001802, x3 = 1.124e-05	0.099 ± 0.06	–	–	–	–
x1 = 0.0001802, x3 = 1.206e-05	0.099 ± 0.06	0.098 ± 0.06	0.1 ± 0.06	0.105 ± 0.06	0.104 ± 0.06
x1 = 0.0001802, x3 = 1.289e-05	0.099 ± 0.06	–	–	–	–
x1 = 0.0001802, x3 = 1.37e-05	0.099 ± 0.06	0.098 ± 0.06	0.1 ± 0.06	0.105 ± 0.06	0.104 ± 0.06
x1 = 0.0001802, x3 = 1.451e-05	0.099 ± 0.06	–	–	–	–
x1 = 0.0001802, x3 = 1.532e-05	0.1 ± 0.06	0.099 ± 0.06	0.101 ± 0.06	0.105 ± 0.06	0.105 ± 0.06
x1 = 0.0001802, x3 = 1.612e-05	0.1 ± 0.06	–	–	–	–
x1 = 0.0001802, x3 = 1.691e-05	0.1 ± 0.06	0.099 ± 0.06	0.101 ± 0.06	0.106 ± 0.06	0.105 ± 0.06
x1 = 0.0001802, x3 = 1.77e-05	0.1 ± 0.06	–	–	–	–
x1 = 0.0001802, x3 = 1.848e-05	0.1 ± 0.06	0.099 ± 0.06	0.101 ± 0.06	0.106 ± 0.06	0.105 ± 0.06
x1 = 0.0001802, x3 = 1.928e-05	0.1 ± 0.06	–	–	–	–
x1 = 0.0001802, x3 = 2.005e-05	0.1 ± 0.06	0.099 ± 0.06	0.101 ± 0.06	0.106 ± 0.06	0.105 ± 0.06
x1 = 0.0001802, x3 = 2.081e-05	0.1 ± 0.06	–	–	–	–
x1 = 0.0001802, x3 = 2.159e-05	0.1 ± 0.06	0.1 ± 0.06	0.102 ± 0.06	0.106 ± 0.06	0.105 ± 0.06
x1 = 0.0001802, x3 = 2.234e-05	0.101 ± 0.06	–	–	–	–
x1 = 0.0001802, x3 = 2.31e-05	0.101 ± 0.06	0.1 ± 0.06	0.102 ± 0.06	0.107 ± 0.06	0.106 ± 0.06
x1 = 0.0001802, x3 = 2.386e-05	0.101 ± 0.06	–	–	–	–
x1 = 0.0001802, x3 = 2.46e-05	0.101 ± 0.06	0.1 ± 0.06	0.102 ± 0.06	0.107 ± 0.06	0.106 ± 0.06
x1 = 0.0001802, x3 = 2.534e-05	0.101 ± 0.06	–	–	–	–
x1 = 0.0001802, x3 = 2.608e-05	–	0.1 ± 0.06	0.102 ± 0.06	0.107 ± 0.06	0.106 ± 0.06
x1 = 0.0001802, x3 = 2.754e-05	–	0.101 ± 0.06	0.103 ± 0.06	0.107 ± 0.06	0.107 ± 0.06
x1 = 0.0001802, x3 = 2.9e-05	–	0.101 ± 0.06	0.103 ± 0.06	0.108 ± 0.06	0.107 ± 0.06
x1 = 0.0001802, x3 = 3.043e-05	–	0.101 ± 0.06	0.103 ± 0.06	0.108 ± 0.06	0.107 ± 0.06
x1 = 0.0001802, x3 = 3.184e-05	–	0.101 ± 0.06	0.103 ± 0.06	0.108 ± 0.06	0.107 ± 0.06
x1 = 0.0001802, x3 = 3.324e-05	–	0.101 ± 0.06	0.103 ± 0.06	0.108 ± 0.06	0.107 ± 0.06
x1 = 0.0001802, x3 = 3.462e-05	–	0.101 ± 0.06	0.104 ± 0.06	0.109 ± 0.06	0.108 ± 0.06
x1 = 0.0001802, x3 = 3.599e-05	–	0.102 ± 0.06	0.104 ± 0.06	0.109 ± 0.06	0.108 ± 0.06
x1 = 0.0001802, x3 = 3.732e-05	–	0.102 ± 0.06	0.104 ± 0.06	0.109 ± 0.06	0.108 ± 0.06
x1 = 0.0001802, x3 = 3.866e-05	–	0.102 ± 0.06	0.104 ± 0.06	0.109 ± 0.06	0.108 ± 0.06
x1 = 0.0001802, x3 = 3.998e-05	–	0.102 ± 0.06	0.105 ± 0.06	0.11 ± 0.06	0.109 ± 0.06

CC(C)O + O + CCCCCCCCCCCCOS(=O)(=O)[O-].[Na+]
298 K, 100 kPa, frequency 0.001 MHz
Settings	electrical conductivity [S/m]
x1 = 0.01509, x3 = 0	0.00013
x1 = 0.02546, x2 = 0.9745	0.00014

CCCCCCCCn1cc[n+](C)c1.[Br-] + O + CCCCCCCCn1cc[n+](C)c1.F[B-](F)(F)F
298.15 K, 101 kPa
Settings	electrical conductivity [S/m]
x1 = 0.0002342, x3 = 5.406e-05	0.15 ± 0.01
x1 = 0.001691, x3 = 0.0003242	0.8 ± 0.02
x1 = 0.002265, x3 = 0.0004503	0.99 ± 0.02
x1 = 0.002803, x3 = 0.0005403	1.11 ± 0.02
x1 = 0.00343, x3 = 0.0006663	1.24 ± 0.03
x1 = 0.004413, x3 = 0.0008642	1.37 ± 0.03
x1 = 0.004913, x3 = 0.0009541	1.45 ± 0.03
